Reference: PMC5639694 (Journal of medicinal chemistry, 2017)
“Also recorded” adds a separate entry of the source. Square brackets hold non-standard residues; d marks the D form. Peptide text beside a SMILES is read from it. Dap = NC[C@H](N)C(=O)O

What was measured:
mMC4R = mMC4R (Mus musculus, UniProt P56450); experiment: AlphaScreen cAMP agonist assay, HEK293 cells stably expressing mMC4R; settings: for mMC4R agonist activity/efficacy in words: concentrations up to 100 μM, full agonist = >90% maximal NDP-MSH stimulation
mMC5R = mMC5R (Mus musculus, UniProt P41149); experiment: AlphaScreen cAMP agonist assay, HEK293 cells stably expressing mMC5R; settings: for selectivity for the mMC5R over the mMC3R: agonist potency ratio; for mMC5R agonist activity/efficacy in words: concentrations up to 100 μM, full agonist = >90% maximal NDP-MSH stimulation
mMC3R = mMC3R (Mus musculus, UniProt P33033); experiment: AlphaScreen cAMP agonist assay, HEK293 cells stably expressing mMC3R; settings: concentrations up to 100 μM; full agonist = >90% maximal NDP-MSH stimulation
mMC1R = mMC1R (Mus musculus, UniProt Q01727); experiment: AlphaScreen cAMP agonist assay, HEK293 cells stably expressing mMC1R; settings: for mMC1R agonist activity/efficacy in words: full agonist = >90% maximal NDP-MSH stimulation
mMC1R, sequence (Q01727 whole entry): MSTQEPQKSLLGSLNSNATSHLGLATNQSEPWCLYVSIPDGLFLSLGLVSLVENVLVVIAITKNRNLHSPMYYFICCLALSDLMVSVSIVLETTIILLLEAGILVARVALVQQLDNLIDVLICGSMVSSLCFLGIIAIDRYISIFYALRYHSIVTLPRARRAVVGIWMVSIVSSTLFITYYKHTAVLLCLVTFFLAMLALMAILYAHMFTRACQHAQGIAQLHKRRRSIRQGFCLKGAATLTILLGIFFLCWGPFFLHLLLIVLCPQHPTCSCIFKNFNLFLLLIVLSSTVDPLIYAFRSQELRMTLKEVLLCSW

mMC4R, sequence (P56450 whole entry): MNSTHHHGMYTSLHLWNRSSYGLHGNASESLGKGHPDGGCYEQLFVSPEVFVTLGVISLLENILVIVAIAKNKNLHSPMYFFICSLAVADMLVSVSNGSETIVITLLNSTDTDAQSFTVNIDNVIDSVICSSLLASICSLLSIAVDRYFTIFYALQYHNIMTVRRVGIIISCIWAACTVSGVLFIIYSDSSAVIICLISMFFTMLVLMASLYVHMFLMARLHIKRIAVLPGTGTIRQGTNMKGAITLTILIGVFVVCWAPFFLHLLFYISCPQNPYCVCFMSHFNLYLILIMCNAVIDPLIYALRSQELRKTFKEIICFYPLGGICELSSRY
mMC5R, sequence (P41149 whole entry): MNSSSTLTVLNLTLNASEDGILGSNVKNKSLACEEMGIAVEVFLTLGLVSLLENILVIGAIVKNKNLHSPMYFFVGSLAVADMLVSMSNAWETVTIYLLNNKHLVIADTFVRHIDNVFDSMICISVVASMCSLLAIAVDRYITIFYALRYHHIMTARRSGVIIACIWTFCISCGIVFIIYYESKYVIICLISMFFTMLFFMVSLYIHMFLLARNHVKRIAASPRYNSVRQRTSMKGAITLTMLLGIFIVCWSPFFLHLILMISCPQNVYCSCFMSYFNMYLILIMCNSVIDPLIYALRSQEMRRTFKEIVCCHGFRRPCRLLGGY
mMC3R, sequence (P33033 whole entry): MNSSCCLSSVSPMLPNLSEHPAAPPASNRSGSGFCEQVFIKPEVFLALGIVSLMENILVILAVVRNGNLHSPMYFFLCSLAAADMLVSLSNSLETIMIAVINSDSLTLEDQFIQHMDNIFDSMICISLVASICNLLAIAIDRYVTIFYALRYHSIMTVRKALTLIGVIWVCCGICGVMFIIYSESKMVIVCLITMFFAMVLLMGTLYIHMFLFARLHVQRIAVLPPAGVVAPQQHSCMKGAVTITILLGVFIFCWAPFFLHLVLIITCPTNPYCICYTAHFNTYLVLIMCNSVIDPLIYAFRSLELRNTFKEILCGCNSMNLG

mMC4R agonist activity/efficacy in words (mMC4R) | mMC3R agonist activity/efficacy in words (mMC3R) | SMILES | further results
full agonists | – | C[C@@H]1NC(=O)[C@H](CC(N)=O)NC(=O)[C@H](Cc2c[nH]c3ccccc23)NC(=O)[C@H](CCCNC(=N)N)NC(=O)[C@@H](Cc2ccccc2)NC(=O)[C@H](Cc2c[nH]cn2)NC(=O)[C@@H]2CCCN2C(=O)[C@H]2CCCN2C(=O)[C@H](Cc2ccccc2)NC1=O [Peptide 1, c[Pro-His-DPhe-Arg-Trp-Asn-Ala-Phe-DPro]] (cyclo(H[dF]RWNAF[dP]P)) | –
partial agonist | full agonist | C[C@@H]1NC(=O)[C@H](CN)NC(=O)[C@H](Cc2c[nH]c3ccccc23)NC(=O)[C@H](CCCNC(=N)N)NC(=O)[C@@H](Cc2ccccc2)NC(=O)[C@H](Cc2c[nH]cn2)NC(=O)[C@@H]2CCCN2C(=O)[C@H]2CCCN2C(=O)[C@H](Cc2ccccc2)NC1=O [Peptide 4, c[Pro-His-DPhe-Arg-Trp-Dap-Ala-Phe-DPro]] (cyclo(PH[dF]RW[Dap]AF[dP])) | mMC4R partial agonist, percent maximal NDP stimulation (mMC4R; PA, relative to maximal NDP-MSH response): 70%; mMC1R agonist activity/efficacy in words (mMC1R): full agonist; decreased agonist potency at mMC1R relative to 1 (mMC1R; relative to 1): 70 fold

The next lines start with the compound.

SMILES | mMC4R agonist activity/efficacy in words (mMC4R) | mMC3R agonist activity/efficacy in words (mMC3R) | further results
C[C@@H]1NC(=O)[C@H](CN)NC(=O)[C@H](Cc2c[nH]c3ccccc23)NC(=O)[C@H](CCCNC(=N)N)NC(=O)[C@@H](Cc2ccccc2)NC(=O)[C@H](Cc2c[nH]cn2)NC(=O)[C@@H]2CCCN2C(=O)[C@H]2CCCN2C1=O [Peptide 5, c[Pro-His-DPhe-Arg-Trp-Dap-Ala-DPro]] (cyclo(H[dF]RW[Dap]A[dP]P)) | fully stimulate; also recorded: full agonists | – | selectivity for the mMC5R over the mMC3R (mMC5R): > 100 fold
C[C@@H]1NC(=O)[C@H](CC(N)=O)NC(=O)[C@H](Cc2c[nH]c3ccccc23)NC(=O)[C@H](CCCNC(=N)N)NC(=O)[C@@H](Cc2ccccc2)NC(=O)[C@@H]2CCCN2C(=O)[C@H]2CCCN2C1=O [Peptide 9, c[Pro-DPhe-Arg-Trp-Asn-Ala-DPro]] (cyclo(P[dF]RWNA[dP])) | – | partially stimulated | selectivity for the mMC5R over the mMC3R (mMC5R): > 1000 fold; selectivity for the mMC1R over the mMC3R (mMC1R; agonist potency ratio): > 100 fold; mMC1R agonist activity/efficacy in words (mMC1R): full mMC1R agonists
N=C(N)NCCC[C@@H]1NC(=O)[C@@H](Cc2ccccc2)NC(=O)[C@@H]2CCCN2C(=O)[C@H]2CCCN2C(=O)[C@H](CC(N)=O)NC(=O)[C@H](Cc2c[nH]c3ccccc23)NC1=O [Peptide 10, c[Pro-DPhe-Arg-Trp-Asn-DPro]] (cyclo(P[dF]RWN[dP])) | – | no agonist activity; also recorded: did not possess agonist activity | mMC5R agonist activity/efficacy in words (mMC5R): partially stimulated
N=C(N)NCCC[C@@H]1NC(=O)[C@@H](Cc2ccccc2)NC(=O)[C@H](Cc2c[nH]cn2)NC(=O)[C@@H]2CCCN2C(=O)[C@H]2CCCN2C(=O)[C@H](Cc2c[nH]c3ccccc23)NC1=O [Peptide 7, c[Pro-His-DPhe-Arg-Trp-DPro]] (cyclo(PH[dF]RW[dP])) | – | partially stimulated | –
N=C(N)NCCC[C@@H]1NC(=O)[C@@H](Cc2ccccc2)NC(=O)[C@@H]2CCCN2C(=O)[C@H]2CCCN2C(=O)[C@H](CN)NC(=O)[C@H](Cc2c[nH]c3ccccc23)NC1=O [Peptide 13, c[Pro-DPhe-Arg-Trp-Dap-DPro]] (cyclo(P[dF]RW[Dap][dP])) | partially stimulated | no observable activity; also recorded: did not possess agonist activity; also recorded: no agonist activity | mMC5R agonist activity/efficacy in words (mMC5R): no observable activity; also recorded: unable to stimulate; also recorded: no agonist activity
